Where no end group is shown, it is not given here.
Legend:
[1] = test system: IRS2; test: IRS2 levels in mouse islets; assay type: cell-based
Text: (§1) Drugs that increase IRS2 expression in mice stimulate beta cell function. An example of such a drug is exendin-4. Exendin-4 is a homolog of the natural peptide produced in the intestine called glucagon-like peptide-1. GLP1/Ex4 upregulates IRS2 levels in β-cells because they stimulate the production of cAMP. […] Other drugs that increase cAMP levels in these and other cells also increase IRS2 levels and stimulate its signaling pathways. Many of the positive actions of GLPL1/Ex4 on mouse and human cells are prevented by blocking the IRS2 gene from expressing its IRS2 protein product.

[2] = test system: IRS2; test: IRS2 levels in human islets; assay type: cell-based
Text: as §1

[3] = test system: IRS2 mice; test: Restoration of normal glucose homeostasis in IRS2 mice; assay type: in vivo; details: administration by injection
Text: (§2) Furthermore, GLP-1 also stimulates β-cell proliferation and neogenesis, and reduces or eliminates apoptosis of β-cells.

[4] = test system: IRS2; details: β-cell lines; Jhala et al., Genes Dev. 17:1575-1580 (2003); cited from earlier work
[5] = test system: IRS2; test: IRS2 upregulation in beta cells and other cells; assay type: cell-based
Text: as §2

Substance | levels of IRS2 [1] | levels of IRS2 [2] | restore normal glucose homeostasis [3] | IRS2 expression [4] | IRS2 upregulation [5]
exendin-4 | upregulate the levels of IRS2 | upregulate the levels of IRS2 | unsuccessful | strongly increases IRS2 expression | 
glucagon-like peptide-1 (HAEGTFTSDVSSYLEGQAAKEFIAWLVKGR; ends and bridges not checked; UniProt P01275 98-127, looked up) [GLP-1, natural peptide produced in the intestine] | upregulate the levels of IRS2 | upregulate the levels of IRS2 |  | strongly increases IRS2 expression | strongly up regulates IRS2

From patent US8557512B2, “Method of screening activators and/or inhibitors of insulin receptor substrate 2” (HMI Medical Innovations, LLC, priority 2003, dated 2013)
